# Columns and labels:
# Assay in all cases: SILAC LC-MS ABPP
# Format in all cases: cell-based
# Conditions in all cases: 25 μM 2 h, live DM93 cells
# O00232 = biological target: T1, O00232 (Homo sapiens, UniProt O00232)
# T1 construct: endogenous in cells; host or cells: DM93
# Procedure, shortened: (§1)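 First, heavy-labelled DM93 cells were exposed to SuTEx ligand (25 μM) and light cells to DMSO, 2 h at 37 °C. Second, HHS-475 (100 μM) was added for 2 h. Third, soluble lysates were clicked to desthiobiotin-azide, pooled 1:1, trypsin-digested, avidin-enriched and analysed by LC-MS/MS.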
# Q13151 = biological target: T2, Q13151 (Homo sapiens, UniProt Q13151)
# T2 construct: performing SuTEx compound screening directly in cells; endogenous in cells; host or cells: DM93 cells (SILAC), soluble fraction
# T2 sequence (Q13151 whole entry): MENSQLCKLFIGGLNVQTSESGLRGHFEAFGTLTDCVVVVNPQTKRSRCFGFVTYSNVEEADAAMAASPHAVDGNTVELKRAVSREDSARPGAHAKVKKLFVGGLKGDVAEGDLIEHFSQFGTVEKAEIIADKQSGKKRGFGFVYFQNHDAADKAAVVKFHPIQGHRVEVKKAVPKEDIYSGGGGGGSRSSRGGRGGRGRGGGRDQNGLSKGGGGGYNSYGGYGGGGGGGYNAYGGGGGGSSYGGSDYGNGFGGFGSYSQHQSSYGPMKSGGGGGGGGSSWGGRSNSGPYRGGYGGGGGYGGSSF
# Procedure, shortened: as §1
# Q14978 = biological target: T3, Q14978 (Homo sapiens, UniProt Q14978)
# T3 construct: performing SuTEx compound screening directly in cells; endogenous in cells; host or cells: DM93 cells (SILAC), soluble fraction
# T3 sequence (Q14978 whole entry): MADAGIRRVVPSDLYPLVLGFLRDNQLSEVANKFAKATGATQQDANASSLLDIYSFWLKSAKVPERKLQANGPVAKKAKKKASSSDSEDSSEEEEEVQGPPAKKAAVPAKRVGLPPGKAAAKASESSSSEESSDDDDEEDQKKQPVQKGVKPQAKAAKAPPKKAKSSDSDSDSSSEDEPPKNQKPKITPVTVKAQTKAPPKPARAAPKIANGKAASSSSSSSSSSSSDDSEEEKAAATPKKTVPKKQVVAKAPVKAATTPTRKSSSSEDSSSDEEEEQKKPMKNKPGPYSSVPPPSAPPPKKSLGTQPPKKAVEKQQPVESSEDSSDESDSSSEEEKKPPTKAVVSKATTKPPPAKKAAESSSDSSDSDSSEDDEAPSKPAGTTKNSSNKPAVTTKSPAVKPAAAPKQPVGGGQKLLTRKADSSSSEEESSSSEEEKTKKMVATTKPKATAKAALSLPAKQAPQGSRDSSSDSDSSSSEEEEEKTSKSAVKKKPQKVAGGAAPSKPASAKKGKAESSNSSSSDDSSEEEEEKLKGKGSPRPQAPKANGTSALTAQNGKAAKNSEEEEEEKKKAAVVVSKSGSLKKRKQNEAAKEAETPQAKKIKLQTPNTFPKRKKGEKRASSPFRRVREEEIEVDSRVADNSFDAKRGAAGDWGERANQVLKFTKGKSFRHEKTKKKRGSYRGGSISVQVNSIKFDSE
# Procedure, shortened: as §1
# Q86VS8 = biological target: T4, Q86VS8 (Homo sapiens, UniProt Q86VS8)
# T4 construct: endogenous in cells; host or cells: DM93 cells (SILAC), live-cell treatment
# Procedure, shortened: as §1
# Q9H009 = Q9H009 (Homo sapiens, UniProt Q9H009)
# Procedure, shortened: as §1
# Q9Y2S7 = biological target: T5, Q9Y2S7 (Homo sapiens, UniProt Q9Y2S7)
# T5 construct: endogenous in cells; host or cells: DM93 cells (SILAC)
# T5 sequence (Q9Y2S7 52-368): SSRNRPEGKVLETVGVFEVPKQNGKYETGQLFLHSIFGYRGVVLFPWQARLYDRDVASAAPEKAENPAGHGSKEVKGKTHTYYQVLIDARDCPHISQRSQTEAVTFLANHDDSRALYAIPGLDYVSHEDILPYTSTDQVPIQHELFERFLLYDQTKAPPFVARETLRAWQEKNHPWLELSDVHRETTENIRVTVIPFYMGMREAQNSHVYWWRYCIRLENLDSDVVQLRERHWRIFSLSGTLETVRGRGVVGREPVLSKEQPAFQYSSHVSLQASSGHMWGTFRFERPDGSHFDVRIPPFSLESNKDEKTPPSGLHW
# Procedure, shortened: as §1
# P13010 = biological target: T6, P13010 (Homo sapiens, UniProt P13010)
# T6 construct: endogenous in cells; host or cells: DM93 cells (SILAC)
# Procedure, shortened: as §1
# P24666 = biological target: T7, P24666 (Homo sapiens, UniProt P24666)
# T7 construct: endogenous in cells; host or cells: DM93 (SILAC)
# T7 sequence (P24666 whole entry): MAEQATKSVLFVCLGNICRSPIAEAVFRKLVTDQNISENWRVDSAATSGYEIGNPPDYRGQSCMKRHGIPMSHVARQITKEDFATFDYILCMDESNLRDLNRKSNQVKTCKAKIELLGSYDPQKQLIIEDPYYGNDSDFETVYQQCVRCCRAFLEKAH
# Procedure, shortened: as §1
# P46940 = biological target: T8, P46940 (Homo sapiens, UniProt P46940)
# T8 construct: endogenous in cells; host or cells: DM93 cells (SILAC)
# Procedure, shortened: as §1
# P50502 = biological target: T9, P50502 (Homo sapiens, UniProt P50502)
# T9 construct: endogenous in cells; host or cells: DM93 cells (SILAC)
# T9 sequence (P50502 whole entry): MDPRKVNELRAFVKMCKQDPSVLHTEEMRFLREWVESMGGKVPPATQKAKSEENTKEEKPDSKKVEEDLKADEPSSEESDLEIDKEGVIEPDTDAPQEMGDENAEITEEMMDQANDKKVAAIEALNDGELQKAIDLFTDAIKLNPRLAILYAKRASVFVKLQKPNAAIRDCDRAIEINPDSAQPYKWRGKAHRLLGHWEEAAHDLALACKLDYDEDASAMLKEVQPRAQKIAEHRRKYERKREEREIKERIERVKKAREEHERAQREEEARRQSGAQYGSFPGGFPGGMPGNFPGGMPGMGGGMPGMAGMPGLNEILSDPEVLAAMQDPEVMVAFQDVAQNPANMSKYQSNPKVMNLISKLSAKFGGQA
# Procedure, shortened: as §1
# Q16836 = biological target: T10, Q16836 (Homo sapiens, UniProt Q16836)
# T10 construct: performing SuTEx compound screening directly in cells; endogenous in cells; host or cells: DM93 cells (SILAC), soluble fraction
# T10 sequence (Q16836 13-314): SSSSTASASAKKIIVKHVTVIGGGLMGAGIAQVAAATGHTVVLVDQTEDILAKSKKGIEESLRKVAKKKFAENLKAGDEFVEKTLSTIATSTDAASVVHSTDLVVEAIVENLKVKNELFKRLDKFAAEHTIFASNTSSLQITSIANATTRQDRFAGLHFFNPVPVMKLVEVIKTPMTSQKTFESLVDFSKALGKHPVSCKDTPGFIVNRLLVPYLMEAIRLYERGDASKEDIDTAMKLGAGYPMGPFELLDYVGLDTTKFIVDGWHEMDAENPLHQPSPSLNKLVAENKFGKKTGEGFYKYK
# Procedure, shortened: as §1
# P06400 = biological target: T11, P06400 (Homo sapiens, UniProt P06400)
# T11 construct: endogenous in cells; host or cells: DM93 cells (SILAC)
# T11 sequence (P06400 whole entry): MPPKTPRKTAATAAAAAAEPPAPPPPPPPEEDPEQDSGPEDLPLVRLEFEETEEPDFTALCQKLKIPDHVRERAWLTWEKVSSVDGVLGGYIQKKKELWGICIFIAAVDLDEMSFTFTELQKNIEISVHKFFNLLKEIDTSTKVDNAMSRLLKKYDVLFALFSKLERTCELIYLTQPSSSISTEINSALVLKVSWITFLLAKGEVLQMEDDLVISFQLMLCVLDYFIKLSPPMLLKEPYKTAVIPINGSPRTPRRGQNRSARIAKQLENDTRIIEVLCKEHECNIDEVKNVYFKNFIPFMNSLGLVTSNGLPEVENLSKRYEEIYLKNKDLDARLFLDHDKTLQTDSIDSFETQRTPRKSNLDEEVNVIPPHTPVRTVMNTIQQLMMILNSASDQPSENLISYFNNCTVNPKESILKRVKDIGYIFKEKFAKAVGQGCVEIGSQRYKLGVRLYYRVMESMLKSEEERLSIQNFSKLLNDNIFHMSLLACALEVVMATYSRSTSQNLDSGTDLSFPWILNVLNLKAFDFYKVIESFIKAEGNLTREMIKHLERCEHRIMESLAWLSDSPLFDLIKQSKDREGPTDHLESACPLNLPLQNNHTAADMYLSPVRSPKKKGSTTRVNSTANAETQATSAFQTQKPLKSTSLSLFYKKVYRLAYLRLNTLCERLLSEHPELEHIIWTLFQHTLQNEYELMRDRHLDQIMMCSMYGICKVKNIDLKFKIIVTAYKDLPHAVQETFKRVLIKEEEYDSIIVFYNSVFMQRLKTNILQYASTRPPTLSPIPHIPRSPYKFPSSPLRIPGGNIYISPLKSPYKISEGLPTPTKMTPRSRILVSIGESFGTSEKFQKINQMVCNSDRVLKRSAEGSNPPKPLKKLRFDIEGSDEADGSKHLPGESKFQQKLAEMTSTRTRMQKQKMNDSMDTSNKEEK
# Procedure, shortened: as §1
# P25685 = biological target: T12, P25685 (Homo sapiens, UniProt P25685)
# T12 construct: endogenous in cells; host or cells: DM93 (SILAC)
# T12 sequence (P25685 whole entry): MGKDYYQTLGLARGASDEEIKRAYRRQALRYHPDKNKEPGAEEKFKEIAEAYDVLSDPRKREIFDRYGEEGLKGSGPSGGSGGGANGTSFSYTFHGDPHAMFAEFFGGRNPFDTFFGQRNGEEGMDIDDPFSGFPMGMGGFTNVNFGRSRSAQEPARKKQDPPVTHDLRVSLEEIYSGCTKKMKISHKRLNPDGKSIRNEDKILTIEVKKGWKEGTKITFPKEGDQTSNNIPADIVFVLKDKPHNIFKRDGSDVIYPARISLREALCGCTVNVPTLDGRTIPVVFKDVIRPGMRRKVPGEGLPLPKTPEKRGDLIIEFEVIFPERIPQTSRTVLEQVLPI
# Procedure, shortened: as §1
# P18669 = biological target: T13, P18669 (Homo sapiens, UniProt P18669)
# T13 construct: endogenous in cells; host or cells: DM93 (SILAC)
# T13 sequence (P18669 whole entry): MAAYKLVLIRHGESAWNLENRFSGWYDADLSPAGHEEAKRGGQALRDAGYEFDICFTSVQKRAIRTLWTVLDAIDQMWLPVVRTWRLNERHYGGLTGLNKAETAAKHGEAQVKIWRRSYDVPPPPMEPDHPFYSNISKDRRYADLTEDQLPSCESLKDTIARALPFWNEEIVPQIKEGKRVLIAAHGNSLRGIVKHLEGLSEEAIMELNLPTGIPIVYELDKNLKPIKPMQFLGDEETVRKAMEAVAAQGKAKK
# Procedure, shortened: as §1
# P50749 = biological target: T14, P50749 (Homo sapiens, UniProt P50749)
# T14 construct: Probe-modified proteins from the soluble fraction were conjugated to a desthiobiotin-azide tag; endogenous in cells; host or cells: DM93 cells (SILAC)
# T14 sequence (P50749 whole entry): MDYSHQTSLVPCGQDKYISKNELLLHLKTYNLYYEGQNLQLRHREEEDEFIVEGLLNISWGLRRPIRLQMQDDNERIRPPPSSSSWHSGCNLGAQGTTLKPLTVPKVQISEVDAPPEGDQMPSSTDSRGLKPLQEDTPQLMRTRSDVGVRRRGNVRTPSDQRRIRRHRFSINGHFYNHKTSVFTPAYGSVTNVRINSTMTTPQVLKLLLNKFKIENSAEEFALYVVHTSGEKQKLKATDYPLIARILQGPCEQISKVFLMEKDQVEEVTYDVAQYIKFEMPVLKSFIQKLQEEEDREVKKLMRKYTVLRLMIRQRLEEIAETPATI
# Procedure, shortened: as §1
# Q04837 = biological target: T15, Q04837 (Homo sapiens, UniProt Q04837)
# T15 construct: performing SuTEx compound screening directly in cells; endogenous in cells; host or cells: DM93 cells (SILAC)
# T15 sequence (Q04837 17-148): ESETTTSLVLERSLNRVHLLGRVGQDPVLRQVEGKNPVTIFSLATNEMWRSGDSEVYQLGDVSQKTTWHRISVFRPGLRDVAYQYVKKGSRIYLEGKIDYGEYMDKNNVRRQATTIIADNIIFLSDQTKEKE
# Procedure, shortened: as §1
# Q9BPW8 = biological target: T16, Q9BPW8 (Homo sapiens, UniProt Q9BPW8)
# T16 construct: endogenous in cells; host or cells: DM93 cells (SILAC), treated live; soluble proteome analysed
# T16 sequence (Q9BPW8 36-284): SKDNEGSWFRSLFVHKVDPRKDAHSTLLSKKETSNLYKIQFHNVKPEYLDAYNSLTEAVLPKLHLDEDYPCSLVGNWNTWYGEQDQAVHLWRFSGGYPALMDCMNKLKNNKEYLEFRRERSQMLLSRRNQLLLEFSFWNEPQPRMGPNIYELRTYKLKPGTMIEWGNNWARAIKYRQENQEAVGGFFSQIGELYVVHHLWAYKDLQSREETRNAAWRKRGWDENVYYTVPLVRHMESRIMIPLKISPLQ
# Procedure, shortened: as §1
# T1 sequence (O00232 whole entry): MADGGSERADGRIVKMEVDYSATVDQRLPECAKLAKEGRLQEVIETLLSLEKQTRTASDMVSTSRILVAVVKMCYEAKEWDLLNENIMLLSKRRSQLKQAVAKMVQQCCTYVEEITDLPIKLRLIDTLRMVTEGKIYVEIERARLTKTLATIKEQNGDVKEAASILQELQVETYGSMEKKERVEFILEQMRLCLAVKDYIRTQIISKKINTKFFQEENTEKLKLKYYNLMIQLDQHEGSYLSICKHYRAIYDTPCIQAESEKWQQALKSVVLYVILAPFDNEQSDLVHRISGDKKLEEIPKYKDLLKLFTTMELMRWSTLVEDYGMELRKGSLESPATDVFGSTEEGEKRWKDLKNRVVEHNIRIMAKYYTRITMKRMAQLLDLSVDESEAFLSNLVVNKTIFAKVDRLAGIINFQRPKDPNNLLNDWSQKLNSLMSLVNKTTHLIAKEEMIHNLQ
smiles,measurement,setting,value
"O=C(NC1CC1)c1ccc(S(=O)(=O)n2cncn2)cc1 [HHS-0101, 4-((1H-1,2,4-triazol-1-yl)sulfonyl)-N-cyclopropylbenzamide]",liganded tyrosine site 20,O00232,HHS0101.Y|HHS0301.Y|HHS0401.Y|HHS0701.Y (tyrosine sites that showed >80% reductions (SR >5) in probe labeling in cells treated with compounds (liganded sites))
same,liganded tyrosine site 180,Q13151,HHS0101.Y (tyrosine sites that showed >80% reductions (SR >5) in probe labeling in cells treated with compounds (liganded sites))
same,liganded tyrosine site 289,Q14978,HHS0101.Y|HHS0701.Y (tyrosine sites that showed >80% reductions (SR >5) in probe labeling in cells treated with compounds (liganded sites))
same,liganded tyrosine site 323,Q86VS8,HHS0101.Y|HHS0401.Y|HHS0701.Y (tyrosine sites that showed >80% reductions (SR >5) in probe labeling in cells treated with compounds (liganded sites))
same,liganded tyrosine site 112,Q9H009,HHS0101.Y|HHS0201.Y|HHS0301.Y|HHS0401.Y|HHS0701.Y (tyrosine sites that showed >80% reductions (SR >5) in probe labeling in cells treated with compounds (liganded sites))
same,liganded tyrosine site 168,Q9Y2S7,HHS0101.Y (tyrosine sites that showed >80% reductions (SR >5) in probe labeling in cells treated with compounds (liganded sites))
"O=C(NCC1CC1)c1ccc(S(=O)(=O)n2cncn2)cc1 [HHS-0201, 4-((1H-1,2,4-triazol-1-yl)sulfonyl)-N-(cyclopropylmethyl)benzamide]",liganded tyrosine site 295,P13010,HHS0201.Y (tyrosine sites that showed >80% reductions (SR >5) in probe labeling in cells treated with compounds (liganded sites))
same,liganded tyrosine site 88,P24666,HHS0201.Y|HHS0401.Y|HHS0701.Y (tyrosine sites that showed >80% reductions (SR >5) in probe labeling in cells treated with compounds (liganded sites))
same,liganded tyrosine site 977,P46940,HHS0201.Y|HHS0301.Y|HHS0701.Y (tyrosine sites that showed >80% reductions (SR >5) in probe labeling in cells treated with compounds (liganded sites))
same,liganded tyrosine site 213,P50502,HHS0201.Y (tyrosine sites that showed >80% reductions (SR >5) in probe labeling in cells treated with compounds (liganded sites))
same,liganded tyrosine site 264,Q16836,HHS0201.Y|HHS0401.Y|HHS0701.Y (tyrosine sites that showed >80% reductions (SR >5) in probe labeling in cells treated with compounds (liganded sites))
"O=C(NC1CCCCC1)c1ccc(S(=O)(=O)n2cncn2)cc1 [HHS-0301, 4-((1H-1,2,4-triazol-1-yl)sulfonyl)-N-cyclohexylbenzamide]",liganded tyrosine site 91,P06400,HHS0301.Y|HHS0701.Y (tyrosine sites that showed >80% reductions (SR >5) in probe labeling in cells treated with compounds (liganded sites))
same,liganded tyrosine site 52,P25685,HHS0301.Y (tyrosine sites that showed >80% reductions (SR >5) in probe labeling in cells treated with compounds (liganded sites))
"O=C(NCc1ccccc1)c1ccc(S(=O)(=O)n2cncn2)cc1 [HHS-0401, 4-((1H-1,2,4-triazol-1-yl)sulfonyl)-N-benzylbenzamide]",liganded tyrosine site 119,P18669,HHS0401.Y (tyrosine sites that showed >80% reductions (SR >5) in probe labeling in cells treated with compounds (liganded sites))
"O=C(c1ccc(S(=O)(=O)n2cncn2)cc1)N1CCC(c2ccccc2)CC1 [HHS-0701, (4-((1H-1,2,4-triazol-1-yl)sulfonyl)phenyl)(4-phenylpiperidin-1-yl)methanone]",liganded tyrosine site 270,P50749,HHS0701.Y (tyrosine sites that showed >80% reductions (SR >5) in probe labeling in cells treated with compounds (liganded sites))
same,liganded tyrosine site 101,Q04837,HHS0701.Y (tyrosine sites that showed >80% reductions (SR >5) in probe labeling in cells treated with compounds (liganded sites))
same,liganded tyrosine site 119,Q04837,HHS0701.Y (tyrosine sites that showed >80% reductions (SR >5) in probe labeling in cells treated with compounds (liganded sites))
same,liganded tyrosine site 83,Q9BPW8,HHS0701.Y (tyrosine sites that showed >80% reductions (SR >5) in probe labeling in cells treated with compounds (liganded sites))
